This is an account of results in US20130224795A1, “IMMOBILIZATION METHOD OF BIOACTIVE MOLECULES USING POLYPHENOL OXIDASE” (Ajou University Industry-Academic Cooperation Foundation, priority 2010, published 2013).

Series [1] can be described thus: Contact angle measurement on immobilized substrate surfaces. The conditions noted are these: stainless steel or titanium; immobilization 30 min; tyramine with tyrosinase 0.4 KU/mL, dopamine without. The class given is physicochemical. The procedure: For experiments, dopamine and tyramine/tyrosinase were immobilized onto metal surfaces. In this regard, 450 μL of phosphate saline buffer was added to a piece of stainless steel or titanium metal and mixed with 40 μL of dopamine or tyramine having a concentration of 100 μg/mL. In the case of tyramine, tyrosinase having a concentration of 0.4 KU/mL was added in an amount of 10 μL. For effective comparison, a reaction was performed for 30 min. After immobilization, the specimens were washed three to five times with distilled water. An analysis was made of the results using contact angles and amine distributions on the surface. For contact angle measurements, droplets of 1 μL were deposited on a specimen surface and the angle at which the droplet interface meets the surface was measured using a contact angle meter (GBX Inc., France) and image analysis software.
Contact angles were measured to examine the change in hydrophilicity of bioactive molecule-immobilized surface. Droplets of 1 μL were deposited on a specimen surface after which contact angles were measured using a contact anglemeter (GBX Inc., France) equipped with image analysis software.

Series [2] relates to osteoblasts (MC3T3-E1). Nature of the series: Cell proliferation assay (MTT). The class given is cell-based. As to conditions: immobilized stainless steel; 1×10^4 cell/cm^2; 7 days; versus bare surface. The procedure:
For cell proliferation assay, osteoblasts (MC3T3-E1) were cultured at a density of 1×10^4 cell/cm^2 for 7 days on RGD- or gelatin-immobilized stainless steel, titanium or polyurethane surfaces, followed by conducting an MTTassay. Each specimen is represented in the form of, for example, ST-RGD 0.17 which stands for the immobilization of RGD at a concentration of 0.17 μg/cm^2 on stainless steel.

In series [1], `NCCc1ccc(O)c(O)c1` [dopa, dopamine] came in with a contact angle of 45 °. In the case of `NCCc1ccc(O)cc1` [tyramine], the contact angle in series [1] is given as 30 °. As for gelatin-poly(ethylene glycol)-tyramine, the proliferation of osteoblasts entry in series [2] was “improved the proliferation”.
